Reference: PMC6412019, “Discovery of NV-5138, the first selective Brain mTORC1 activator” (Scientific Reports, 2019)
Entries after “also recorded” stand apart in the source; their conditions may differ.

What was measured:
HeLa cells = assay: 14C-leucine protein incorporation assay in HeLa cells; assay type: cell-based, human; details: for effect on incorporation of 14C-leucine into precipitated proteins: 30 min labeling, CHX 10 ug/ml
Experimental: Since NV-5138 is an amino acid, we performed two different experiments to rule out any potential liabilities that could arise from the incorporation of NV-5138 into proteins. We first determined whether NV-5138 substitutes for any branched-chain amino acid or methionine into newly synthesized proteins using liquid chromatography followed by tandem mass spectroscopy (LC-MS/MS). NV-5138 (100 µM) or vehicle was incubated with serum and leucine-starved 293T cells for 6 hours followed by proteomic analysis by mass spectrometry.
After incubation, cells were harvested and lysed in Tris/HCl 10 mM pH 7.4 plus 1% NP40. Lysate were mixed with water and 20% trichloroacetic acid (1:1:2) and incubated on ice for 2 h to precipitate the protein. Proteins were collected by centrifugation, solubilized in NaOH, placed in scintillation fluid and read on a Wallac Microbeta Trilux 2450 with a 2-min count. Scintillation values were normalized as the percentage of the counts from the DMSO-treated wells.

Sestrin2 = biological target: T1, Sestrin2 (Homo sapiens, UniProt P58004); assay: Thermal shift assay of purified Sestrin2; assay type: binding; design: Full-length, codon-optimized human Sestrin2 was cloned into a pMAL6H -C5XT bacterial expression vector; His6-MBP (TEV-cleavable) (N, cleaved yes); made in house; host or cells: Escherichia coli LOBSTR (DE3); details: average +/- SD, n = 3, read-out: Average Tm shift; for ΔTm at 1 µM: compound concentration 1 µM; for ΔTm at 10 µM: compound concentration 10 µM; for ΔTm at 100 µM: compound concentration 100 µM
T1 sequence (P58004 1-480): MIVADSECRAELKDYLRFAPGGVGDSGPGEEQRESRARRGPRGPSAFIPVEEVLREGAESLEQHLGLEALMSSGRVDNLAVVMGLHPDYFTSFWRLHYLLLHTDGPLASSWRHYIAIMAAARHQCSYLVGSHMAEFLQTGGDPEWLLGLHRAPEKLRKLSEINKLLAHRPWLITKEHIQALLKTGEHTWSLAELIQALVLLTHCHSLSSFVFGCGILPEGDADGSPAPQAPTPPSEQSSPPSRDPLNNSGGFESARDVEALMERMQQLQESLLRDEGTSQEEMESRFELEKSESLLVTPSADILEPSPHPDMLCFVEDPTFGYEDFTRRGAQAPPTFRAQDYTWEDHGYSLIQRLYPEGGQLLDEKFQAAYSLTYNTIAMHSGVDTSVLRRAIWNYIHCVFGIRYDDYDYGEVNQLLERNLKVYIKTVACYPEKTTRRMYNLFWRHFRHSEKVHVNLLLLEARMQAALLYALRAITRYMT
Experimental: Accordingly, we synthesized novel binding ligands incorporating these structural features. These compounds were tested for Sestrin2 binding using a thermal shift assay and for their ability to activate mTORC1 in leucine-starved Human Embryonic Kidney (HEK)-293T cells. These studies led to the identification of NV-5138 – a novel small molecule activator of mTORC1 signaling (Fig. 1a).
Full-length, codon-optimized human Sestrin2 was cloned into a pMAL6H -C5XT bacterial expression vector. Protein was purified onto a HisTrap FF crude column (GE Healthcare) followed by anion exchange chromatography then further purified via size-exclusion chromatography. Further details can be found in Supplementary Information.
Full-length, codon-optimized human Sestrin2 was cloned into a pMAL6H -C5XT bacterial expression vector such that Sestrin2 became N-terminally fused with a Tobacco Etch Virus nuclear-inclusion-a endopeptidase (TEV)–cleavable His6-MBP tag. This vector was transformed into Escherichia coli LOBSTR (DE3) cells (Kerafast) ^1. Cells were grown at 37 °C to 0.6 OD, then protein production was induced with 0.2 mM IPTG at 18 °C for 12–14 h. Cells were collected by centrifugation at 6,000g, resuspended in lysis buffer (50 mM Tris-HCl, pH 8.5, 400 mM NaCl, 5 mM MgCl2, 1 mM dithiothreitol (DTT), 0.2% CHAPS, 10% glycerol and 1 tablet of protease inhibitor tablets per 50 ml (Complete Inhibitor tablets from Roche w/o EDTA)), homogenized and sonicated. The lysate was cleared by centrifugation at 15,000g for 45 min. The soluble fraction (~250 ml) was loaded onto a HisTrap FF crude column (GE Healthcare) at 2 ml/min followed by washing with lysis buffer at 4 ml/min. After washing, the protein was eluted in lysis buffer containing 300 mM imidazole at 4 ml/min. Fractions corresponding to the Sestrin2 protein were identified via SDS-PAGE and pooled. The eluted Sestrin2 was then incubated with TEV protease and dialyzed overnight at 4 °C into 50 mM Tris-HCl, pH 8.5, 400 mM NaCl, 5 mM MgCl2, 1 mM dithiothreitol (DTT), 0.1% CHAPS, 10% glycerol. To separate the N-terminal tag from the cleaved Sesrin2, from cleaved sample was then re-applied to the HisTrap FF crude column and flow-through collected. The protein was then subjected to anion exchange chromatography on an 8ml Mono Q column (GE Healthcare) with a linear NaCl gradient and then further purified via size-exclusion chromatography on a Superdex S200 26/60 column (GE Healthcare) equilibrated in running buffer (50 mM Hepes pH 7.4, 200 mM NaCl, 1 mM DTT, 2.5 mM MgCl2, and 5% glycerol).

BCAT2 = biological target: T2, BCAT2 (Homo sapiens, UniProt O15382); assay: BCAT enzymatic assay (substrate test), BCAT2; assay type: biochemical; details: NADH oxidation at 340 nm; tested up to 1.5 mM
T2 construct: purchased OriGene TP300625
T2 sequence (O15382 28-392): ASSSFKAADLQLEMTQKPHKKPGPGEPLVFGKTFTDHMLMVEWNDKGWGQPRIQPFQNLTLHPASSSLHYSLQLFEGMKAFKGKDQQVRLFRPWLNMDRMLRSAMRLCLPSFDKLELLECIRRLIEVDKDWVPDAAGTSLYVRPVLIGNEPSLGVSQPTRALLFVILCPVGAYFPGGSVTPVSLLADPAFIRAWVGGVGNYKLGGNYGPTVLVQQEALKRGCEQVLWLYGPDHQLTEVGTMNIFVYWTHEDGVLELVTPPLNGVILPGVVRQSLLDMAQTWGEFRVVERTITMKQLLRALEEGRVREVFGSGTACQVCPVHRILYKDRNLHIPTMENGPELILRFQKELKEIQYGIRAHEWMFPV
Experimental: BCAT exists in two isoforms, mitochondrial BCAT2 which is ubiquitously expressed, and cytosolic BCAT1, which is predominantly expressed in embryonic tissues and the adult brain. To determine whether NV-5138 is a substrate for BCAT isoforms, we established an in vitro enzymatic assay using purified BCAT1 and BCAT2 and performed the assay in the forward direction as described. […] The disappearance of absorbance at 340 nm due to NADH oxidation is measured continuously over time.
The assay buffer was dispensed into a 96-well plate and brought up to 37 °C for 10 min before adding BCAT1 or BCAT2 (72 ng) in 0.1 M potassium phosphate buffer. Absorbance at 340 nm was then read every minute for 30 min at RT using an Envision plate reader. Source of each reagents used can be found in Supplementary Information.

Compound	effect on incorporation of 14C-leucine into precipitated proteins (HeLa cells)	ΔTm at 1 µM (Sestrin2) [°C]	ΔTm at 10 µM (Sestrin2) [°C]	ΔTm at 100 µM (Sestrin2) [°C]	transamination by BCAT2 (BCAT2)	effect on 14C-leucine incorporation at high doses (HeLa cells; high doses)
CC(C)C[C@H](N)C(=O)O [Leucine, L-leucine, reference compound]	blocked incorporation	0.61 ± 0.59	3.64 ± 0.41	6.49 ± 0.2	transaminated by BCAT1 and BCAT2	–
CC(C)(C[C@H](N)C(=O)O)C(F)F [NV-5138, (S)-2-amino-5,5-difluoro-4,4-dimethylpentanoic acid]	did not show any competition	0.57 ± 0.22	3.27 ± 0.16	6.17 ± 0.18	no decrease in absorption at 340 nm; also recorded: did not observe any transamination	appeared to increase
